The text below walks through data of patent US4577020A, “Aminoalkyl and aminoalkenyl triazoles as anti-psychotic agents” (The Upjohn Company, priority 1983, dated 1986).

Assay [1] addresses T1, ^3 H-spiroperidol binding (Mus musculus, UniProt P61168).
T1 construct: from tissue; host or cells: brain of ICR mice: striata, septum, most of the olfactory tubercles, small part of ventral cortex (in vivo labelling)
In words: In vivo spiroperidol binding assay. The protocol: D. In vivo spiroperidol Binding Assay
ICR strain mice, weighing about 20 gm, are given the test drugs or vehicle, i.p. or s.c., in 0.10 ml. Drug solutions are in saline, 0.1M citric acid, or 33% propylene glycol. After 1 hour, mice are given 66 micro-Curies (μCi)/kg of ^3 H-spiroperidol (specific activity […]) i.v. in 0.10 ml of saline. Four to 6 mice are given each test drug, and 4 of those which are successfully i.v. injected with the label are used for the rest of the experiment. At 3 hours (2 hours after the ^3 H-spiroperidol injection), the mice are sacrificed and the brains rapidly dissected. A section of brain tissue including the striata, septum, most of the olfactory tuberoles, and a small associated portion of the ventral edge of the cortex, is removed to dry ice. The tissues are weighed (usually 60-70 mg) and then dissolved in 1.0 ml of Protosol (New England Nuclear) overnight at about 40° C. The solutions are then neutralized with 80 μl of 6N HCl or 200 μl of 2.4N HCl, 15 ml of ACS counting solution (Amersham) is added, and the samples are counted by liquid scintillation spectroscopy. The amount of bound ^3 H-spiroperiodol, in cpm/mg tissue, is calculated for each test group and compared to the control group using the two-tailed Student's t test.
Of these tests, the in vivo spiroperidol binding assay is the most important indicator of antipsychotic activity. […]

Assay [2] in a line: standard laboratory test which indicates analgesic activity. From the text:
However, the preferred use of the compounds of this invention is as anti-psychotic agents.

T1 sequence (P61168 whole entry): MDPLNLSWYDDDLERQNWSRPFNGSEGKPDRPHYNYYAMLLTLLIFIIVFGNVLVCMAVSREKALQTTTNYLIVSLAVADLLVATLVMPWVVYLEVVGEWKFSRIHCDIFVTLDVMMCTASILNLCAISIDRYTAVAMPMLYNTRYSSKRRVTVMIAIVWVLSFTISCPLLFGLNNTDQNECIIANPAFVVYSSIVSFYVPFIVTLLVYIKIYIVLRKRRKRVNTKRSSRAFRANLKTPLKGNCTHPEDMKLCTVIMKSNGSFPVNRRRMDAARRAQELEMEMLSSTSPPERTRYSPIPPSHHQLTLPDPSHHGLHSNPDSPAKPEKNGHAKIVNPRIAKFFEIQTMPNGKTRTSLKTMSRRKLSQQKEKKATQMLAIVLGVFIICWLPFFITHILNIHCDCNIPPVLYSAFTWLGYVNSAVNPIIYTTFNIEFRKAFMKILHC

`CN(CCCc1nncn1-c1ccccc1)CCc1ccccc1` [N-methyl-4-phenyl-N-(2-phenylethyl)-4H-1,2,4-triazole-3-propanamine]: the “effectiveness in the in vivo spiroperidol binding assay (in words)” value in assay [1] is on record as “most effective”.

On to `Cc1nnc(C(C)(O)CCN(C)CCc2ccccc2)n1-c1ccccc1` (stereo not drawn) [Example 2], for which the “analgesic activity (in words)” value in assay [2] was “effective”.

For the compound `Cc1nnc(/C=C/CN2CCN(c3ccccc3)CC2)n1-c1ccccc1` [Example 3, (E)-1-[3-(5-methyl-4-phenyl-4H-1,2,4-triazol-3-yl)-2-propenyl]-4-phenyl-piperazine], the “effectiveness in the in vivo spiroperidol binding assay (in words)” value in assay [1] was “most effective”.
